Assay results taken from BindingDB's records for patent US10669227 (THE RESEARCH FOUNDATION OF STATE UNIVERSITY OF NEW YORK, 2020).
pIC50: −log10 of the molar value.

Molecular target: 72 kDa type IV collagenase (Homo sapiens, UniProt P08253)
Assay: Inhibition of MMPs
Excerpt: However, it should be noted that excessive inhibition of MMP activity may not be desirable therapeutically because a minimal, or basal, level of MMPs may be necessary for optimal defense of the host.

Sequence of 72 kDa type IV collagenase (P08253 whole entry): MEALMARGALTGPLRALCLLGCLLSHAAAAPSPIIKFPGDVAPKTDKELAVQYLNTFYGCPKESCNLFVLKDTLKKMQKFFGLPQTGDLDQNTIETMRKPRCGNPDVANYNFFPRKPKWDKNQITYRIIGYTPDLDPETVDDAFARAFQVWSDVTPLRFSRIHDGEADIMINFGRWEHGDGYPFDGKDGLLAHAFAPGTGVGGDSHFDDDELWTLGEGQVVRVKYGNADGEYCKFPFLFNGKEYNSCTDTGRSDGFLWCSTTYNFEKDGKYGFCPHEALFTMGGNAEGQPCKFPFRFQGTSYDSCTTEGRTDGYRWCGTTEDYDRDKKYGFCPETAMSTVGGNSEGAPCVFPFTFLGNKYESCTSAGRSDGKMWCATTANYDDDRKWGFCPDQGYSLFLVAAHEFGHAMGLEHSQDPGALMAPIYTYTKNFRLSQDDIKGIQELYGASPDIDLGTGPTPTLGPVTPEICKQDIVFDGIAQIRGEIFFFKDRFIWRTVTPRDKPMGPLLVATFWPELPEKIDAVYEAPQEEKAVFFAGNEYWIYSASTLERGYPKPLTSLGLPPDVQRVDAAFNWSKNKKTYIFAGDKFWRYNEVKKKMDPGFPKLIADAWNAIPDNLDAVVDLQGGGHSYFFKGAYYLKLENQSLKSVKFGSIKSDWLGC

## COc1cc(/C=C/C(=O)C(C(=O)/C=C/c2ccc(O)c(CO)c2)C(=O)Nc2ccccc2)ccc1O (stereo unspecified) [US10669227, Compound 6]
  pIC50: 4.07
